The values below come from patent publication US4263286A, “Therapeutic agent for consciousness disorder and perception and movement disorder” (Nippon Shoji Kaisha, Ltd., priority 1978, dated 1981).

Series [1] concerns rabbits whose internal capsule was destroyed. As to conditions: known therapeutic agents; already confirmed by experiments; cited from earlier work.
Another series has as its system sciatic nerve. Kind of series: Afferent evoked potential in the cerebral cortex in response to stimulation of the sciatic nerve. The format is in vivo. On the procedure: In order to test the effect of the active compound of the present invention on perception, an experiment was carried out on afferent evoked potential in response to stimulation of the sciatic nerve.
When the sciatic nerve is stimulated, the potential evoked in the cerebral cortex is recorded and summed up. These evoked electric potentials are firstly three small negative responses, subsequently a positive response and followed by two large negative responses, which are designated as N1, N2, N3, P, N4 and N5, respectively.
In order to examine the effect of a compound of the present invention: dilinoleoylphosphatidic acid disodium salt on these components, N1, N2, N3, P, N4 and N5, sciatic nerve was simulated once per 1 second and the data of 50 times of stimulus were recorded and summed up. The results are shown in the accompanying FIGS. 15, 16, 17, 18, 19 and 20 which correspond to the data of N1, N2, N3, P, N4 and N5, respectively.

The next series concerns male mice. Put plainly: Toxicity in male mice, tail intravenous. The class given is in vivo, mouse. As to conditions: 100 mg/kg tail intravenous over 30 seconds; observed 75 hours.
A further series has as its system ICR mice. Put plainly: 7-day toxicity in ICR mice. The settings on record: mouse, in vivo.
A further series relates to Spragne-Dowley rats. Kind of series: 7-day toxicity in rats. The settings on record: rat, in vivo.

Where a name gives a salt, the structure may show the parent alone.

As for `C[N+](C)(C)CCOP(=O)(O)OP(=O)([O-])OC[C@H]1O[C@@H](n2ccc(N)nc2=O)[C@H](O)[C@@H]1O` [Citicoline, cytidine diphosphate choline], in series [1], the “effect on thresholds of evoked muscular discharge in fore- and hind-limbs” value (“effect on thresholds” for short) is “decreasing effect of the thresholds of evoked muscular discharge”. Take `CN(C)CCOC(=O)COc1ccc(Cl)cc1.Cl` [Meclofenoxate hydrochloride, (4-chlorophenoxy)acetic acid 2-(dimethylamino)ethyl ester hydrochloride]: the “effect on thresholds” value in series [1] is listed as “decreasing effect of the thresholds of evoked muscular discharge”. `Cc1ncc(CSSCc2cnc(C)c(O)c2CO)c(CO)c1O` [Pyrithioxin, 3,3'-(dithiodimethylene)-bis[5-hydroxy-6-methyl-4-pyridinemethanol]]: in series [1], the “effect on thresholds” value is given as “decreasing effect of the thresholds of evoked muscular discharge”. Turning to `CCCCC/C=C\C/C=C\CCCCCCCC(=O)OCC(COP(=O)(O)O)OC(=O)CCCCCCC/C=C\C/C=C\CCCCC` (centres unmarked) [dilinoleoylphosphatidic acid disodium salt], in the series on sciatic nerve (in vivo), the “effect on the afferent pathway” value is listed as “facilitatory effect on the afferent pathway”. For the same molecule, the “effect on evoked potential components N1 and N2” value in the series on sciatic nerve (stimulation once per 1 second, 50 summed, FIGS. 15, 16) was “facilitatory effect on the components, N1 and N2, particularly on N1”. The mortality entry in the series on male mice is given as “no mouse was died”. Turning to “Cytochrome C: already used as therapeutic agent for the treatment of consciousness disorder and perception and movement disorder”, the “effect on thresholds” value in series [1] is listed as “decreasing effect of the thresholds of evoked muscular discharge”.

Take polyenephosphatidylcholine: the “difference between male and female” value in the series with ICR mice is “no difference between male and female”; in the series with Spragne-Dowley rats, “no difference between male and female”. In addition, the symptoms result in the series with ICR mice and in the series on Spragne-Dowley rats was “no abnormal symptom was observed except that the voluntary movement was slightly inhibited in the groups administered in a large dose” in each case.
